{"source": "patent US20120171123A1", "about": "“USES AND COMPOSITIONS FOR TREATMENT OF RHEUMATOID ARTHRITIS” (priority 2006, published 2012)", "tested_on": "MTX-naïve adult patients with early RA (<3 years)", "experiment": "Study J: SF-36 (domains, PCS, MCS) with criteria- and content-based interpretation", "type": "in vivo, human", "set-up": "key to mean SF-36 PCS score / SF-36 Role-Physical score / SF-36 Bodily Pain score / SF-36 General Health score / SF-36 Vitality score / SF-36 Social Functioning score / SF-36 Role-Emotional score / SF-36 Mental Health score / SF-36 PCS score / SF-36 MCS score / SF-36 Physical Functioning score: scale 0-100, higher = better health-related quality of life", "conditions": "for SF-36 Bodily Pain score / SF-36 General Health score / SF-36 MCS score / SF-36 Mental Health score / SF-36 PCS score / SF-36 Physical Functioning score / SF-36 Role-Emotional score / SF-36 Role-Physical score / SF-36 Social Functioning score / SF-36 Vitality score: LOCF", "source_text": "Study J was a 2-year, double-blind, active comparator-controlled, Phase III study conducted at many sites worldwide.\nThe SF-36 was used to assess the 8 domains of HRQOL—physical functioning, role-physical, bodily pain, general health, vitality, social functioning, role-emotional, and mental health. These 8 domains were aggregated into Physical Component Summary (PCS) and Mental Component Summary (MCS) scores. The SF-36 has a scale of 0-100, with higher scores indicating better health-related quality of life.\nMinimum clinically important differences (MCID) are defined as improvements of 5-10 points in the individual domains scores and 2.5-5 points in the PCS and MCS^5.\nAll HRQOL domains were measured at baseline, and after 12, 26, 42, 52, 76, and 104 weeks of therapy. In this analysis, mean scores and mean changes in each HRQOL domain are reported, as well as the PCS and MCS, at Weeks 12 and 104. Criteria-based interpretation was used to understand the meaning of differences in PCS scores for work loss and resource use and content-based interpretation for specific SF-36 items.^4\nStudy J was a 2-year, double-blind, active comparator-controlled, Phase III study conducted at 149 sites in North America, Europe, and Australia. […] The SF-36 was used to assess the 8 domains of HRQOL—physical functioning, role-physical, bodily pain, general health, vitality, social functioning, role-emotional, and mental health. These 8 domains were aggregated into Physical Component Summary (PCS) and Mental Component Summary (MCS) scores. The SF-36 has a scale of 0-100, with higher scores indicating better health-related quality of life. Minimum clinically important differences (MCID) are defined as improvements of 5-10 points in the individual domains scores and 2.5-5 points in the PCS and MCS (Kosinski M, et al. Arthritis Rheum 2000:43:1478-87). All HRQOL domains were measured at baseline, and after 12, 26, 42, 52, 76, and 104 weeks of therapy. In this analysis, we report mean scores and mean changes in each HRQOL domain, as well as the PCS and MCS, at Weeks 12 and 104. We used criteria-based interpretation to understand the meaning of differences in PCS scores for work loss and resource use and content-based interpretation for specific SF-36 items (Weinblatt M E, et al. Arthritis Rheum 2003; 48:35-45).", "key": {"[1]": {"conditions": "Baseline, percentages based on general US population norms"}, "[2]": {"conditions": "Week 104, percentages based on general US population norms"}}, "data": [{"smiles": "CN(Cc1cnc2nc(N)nc(N)c2n1)c1ccc(C(=O)N[C@@H](CCC(=O)O)C(=O)O)cc1", "note": "[mtx alone, methotrexate]", "values": [{"measurement": "SF-36 Bodily Pain score", "setting": "Baseline", "result": 29.9}, {"measurement": "SF-36 General Health score", "setting": "Baseline", "result": 49.7}, {"measurement": "SF-36 MCS score", "setting": "Baseline", "result": 43.5}, {"measurement": "SF-36 Mental Health score", "setting": "Baseline", "result": 62.1}, {"measurement": "SF-36 PCS score", "setting": "Baseline", "result": 32.2}, {"measurement": "SF-36 Physical Functioning score", "setting": "Baseline", "result": 38.9}, {"measurement": "SF-36 Role-Emotional score", "setting": "Baseline", "result": 41.1}, {"measurement": "SF-36 Role-Physical score", "setting": "Baseline", "result": 16.4}, {"measurement": "SF-36 Social Functioning score", "setting": "Baseline", "result": 56.5}, {"measurement": "SF-36 Vitality score", "setting": "Baseline", "result": 37.1}, {"measurement": "Interpretation of SF-36 PCS, Content-Based: Climb stairs", "setting": "[1]", "result": 66.4, "unit": "%"}, {"measurement": "Interpretation of SF-36 PCS, Content-Based: Difficulty working", "setting": "[1]", "result": 88.1, "unit": "%"}, {"measurement": "Interpretation of SF-36 PCS, Content-Based: Have energy", "setting": "[1]", "result": 9.7, "unit": "%"}, {"measurement": "Interpretation of SF-36 PCS, Content-Based: Time off work", "setting": "[1]", "result": 64.8, "unit": "%"}, {"measurement": "Interpretation of SF-36 PCS, Content-Based: Walk on block", "setting": "[1]", "result": 44.4, "unit": "%"}, {"measurement": "Interpretation of SF-36 PCS, criteria-based: Hospitalized", "setting": "[1]", "result": 10.7, "unit": "%"}, {"measurement": "Interpretation of SF-36 PCS, criteria-based: Job loss", "setting": "[1]", "result": 30.3, "unit": "%"}, {"measurement": "Interpretation of SF-36 PCS, criteria-based: MD visit", "setting": "[1]", "result": 47.7, "unit": "%"}, {"measurement": "Interpretation of SF-36 PCS, criteria-based: Not work", "setting": "[1]", "result": 44.1, "unit": "%"}, {"measurement": "SF-36 Bodily Pain score", "setting": "Week 12", "result": 51.0}, {"measurement": "SF-36 General Health score", "setting": "Week 12", "result": 58.9}, {"measurement": "SF-36 MCS score", "setting": "Week 12", "result": 49.0}, {"measurement": "SF-36 Mental Health score", "setting": "Week 12", "result": 71.2}, {"measurement": "SF-36 PCS score", "setting": "Week 12", "result": 38.3}, {"measurement": "SF-36 Physical Functioning score", "setting": "Week 12", "result": 51.1}, {"measurement": "SF-36 Role-Emotional score", "setting": "Week 12", "result": 60.5}, {"measurement": "SF-36 Role-Physical score", "setting": "Week 12", "result": 40.4}, {"measurement": "SF-36 Social Functioning score", "setting": "Week 12", "result": 72.0}, {"measurement": "SF-36 Vitality score", "setting": "Week 12", "result": 51.6}, {"measurement": "SF-36 Bodily Pain score", "setting": "Week 104", "result": 57.0}, {"measurement": "SF-36 General Health score", "setting": "Week 104", "result": 68.3}, {"measurement": "SF-36 MCS score", "setting": "Week 104", "result": 49.9}, {"measurement": "SF-36 Mental Health score", "setting": "Week 104", "result": 72.9}, {"measurement": "SF-36 PCS score", "setting": "Week 104", "result": 41.2}, {"measurement": "SF-36 Physical Functioning score", "setting": "Week 104", "result": 58.9}, {"measurement": "SF-36 Role-Emotional score", "setting": "Week 104", "result": 64.5}, {"measurement": "SF-36 Role-Physical score", "setting": "Week 104", "result": 48.6}, {"measurement": "SF-36 Social Functioning score", "setting": "Week 104", "result": 75.5}, {"measurement": "SF-36 Vitality score", "setting": "Week 104", "result": 56.9}, {"measurement": "Interpretation of SF-36 PCS, Content-Based: Climb stairs", "setting": "[2]", "result": 30.7, "unit": "%"}, {"measurement": "Interpretation of SF-36 PCS, Content-Based: Difficulty working", "setting": "[2]", "result": 51.2, "unit": "%"}, {"measurement": "Interpretation of SF-36 PCS, Content-Based: Have energy", "setting": "[2]", "result": 26.6, "unit": "%"}, {"measurement": "Interpretation of SF-36 PCS, Content-Based: Time off work", "setting": "[2]", "result": 29.8, "unit": "%"}, {"measurement": "Interpretation of SF-36 PCS, Content-Based: Walk on block", "setting": "[2]", "result": 21.4, "unit": "%"}, {"measurement": "Interpretation of SF-36 PCS, content-based: Climb stairs", "setting": "[2]", "result": 30.7, "unit": "%"}, {"measurement": "Interpretation of SF-36 PCS, content-based: Difficulty working", "setting": "[2]", "result": 61.2, "unit": "%"}, {"measurement": "Interpretation of SF-36 PCS, content-based: Have energy", "setting": "[2]", "result": 26.6, "unit": "%"}, {"measurement": "Interpretation of SF-36 PCS, content-based: Time off work", "setting": "[2]", "result": 29.8, "unit": "%"}, {"measurement": "Interpretation of SF-36 PCS, content-based: Walk on block", "setting": "[2]", "result": 21.4, "unit": "%"}, {"measurement": "Interpretation of SF-36 PCS, criteria-based: Hospitalized", "setting": "[2]", "result": 7.7, "unit": "%"}, {"measurement": "Interpretation of SF-36 PCS, criteria-based: Job loss", "setting": "[2]", "result": 20.8, "unit": "%"}, {"measurement": "Interpretation of SF-36 PCS, criteria-based: MD visit", "setting": "[2]", "result": 34.6, "unit": "%"}, {"measurement": "Interpretation of SF-36 PCS, criteria-based: Not work", "setting": "[2]", "result": 24.2, "unit": "%"}, {"measurement": "mean SF-36 PCS score", "setting": "week 12 (baseline 31.7 combination, 32.2 MTX)", "result": 38.3}]}]}
